In paper PMC10396955, “2-Oxabicyclo[2.1.1]hexanes as saturated bioisosteres of the ortho-substituted phenyl ring” (Nature Chemistry, 2023):

Columns and labels:
[1] = Chemical stability of carboxylic acids (acid, base, storage); assay type: physicochemical; details: room temperature, one day
Source text: We also checked the chemical stability of three representative carboxylic acids, 1b, 19b and 22b (Table 2), because we suspected that some of them could decompose via a retro-Michael-type reaction. […] All products were crystalline solids, and we stored all of them in closed vials at room temperature on the shelf.

Compound: O=C(O)C1C2CC1(c1ccc(C(F)(F)F)cc1)CO2 (stereo not drawn) [Compound 19b]
- chemical stability ([1]; aqueous 1 M hydrochloric acid): did not lead to any decomposition
- chemical stability ([1]; aqueous 1 M sodium hydroxide): did not lead to any decomposition
- melting point: 64 to 65 °C

Compound: Cc1cncc(C23COC(C2)C3C(=O)O)c1 (stereo not drawn) [Compound 22b]
- chemical stability ([1]; aqueous 1 M hydrochloric acid): did not lead to any decomposition
- chemical stability ([1]; aqueous 1 M sodium hydroxide): did not lead to any decomposition
- melting point: 204 to 205 °C
